Measured values: US11249070B2, “Anti-cancer drug assessment method” (TOPPAN PRINTING CO., LTD., priority 2016, dated 2022)

Legend:
[1] = test system: human lung adenocarcinoma cell line A549; experiment: CNT with 5-FU with or without bevacizumab, NHDF/HUVEC cell structure, flow cytometer (Example 11); type: cell-based; details: 3D (NHDF, HUVEC), bevacizumab 2 μg per well in the combination, 72 hours
Description: (§1) Thereafter, 400 μL of Fixation/Permilization solution (554722, produced by BD Bioscience) was added for fixation at 4° C. for 30 minutes, and the liquid component was removed. Then, 400 μL of Perm/Wash buffer attached to the kit was added, and centrifugation was performed at room temperature at 1120×g for 5 minutes. Thereafter, a primary antibody Monoclonal Mouse Anti-human Cytokeratin 7 (M7018, produced by DAKO) diluted with 5% FBS-containing PBS was added and allowed to react at 4° C. for 30 minutes. Then, the liquid component was removed, and washing was performed twice using Perm/Wash buffer attached to the kit. A secondary antibody Goat anti-Mouse IgG1 Cross-Adsorbed Secondary Antibody, Alexa Fluor 546 (A-11030, produced by Thermo Fischer Scientific) diluted with 5% FBS-containing PBS was added and allowed to react at 4° C. for 30 minutes. Thereafter, the liquid component was removed, washing was performed twice using Perm/Wash buffer attached to the kit, and the resultant was resuspended in 350 μL of 5% FBS-containing PBS.
(§2) The number of cells emitting fluorescence in the suspension after fixation and staining was counted as viable cancer cells. The cell count was performed using a flow cytometer (produced by Sony).

HT29 = experiment: CNT with 5-FU with or without bevacizumab, 2D, spheroid, 3D (Example 5); type: cell-based, human; details: bevacizumab 2 μg per well in the combination, 72 hours
Excerpt: Moreover, for comparison, in place of the above cell structures, structures were produced by culturing cancer cells so as to form a single layer in a general culture container (2D method), and spheroids were produced by spheroid culture of a mixture of 2×10^6 NHDF, 3×10^4 HUVEC, and 2×10^4 cancer cells (spheroid method).

HCT116 = experiment: as above; type: cell-based, human; details: bevacizumab 2 μg per well in the combination, 72 hours
[2] = test system: human lung adenocarcinoma cell line A549; experiment: CNT with 5-FU with or without bevacizumab, lung stromal cells NHLF/HMVEC-L, flow cytometer (Example 10); type: cell-based; details: 5-FU 100 μM, bevacizumab 2 μg per well in the combination, 72 hours
Description: as §1, §2

O=c1[nH]cc(F)c(=O)[nH]1 [5-FU]
CNT (%) Average value ([1]; 5-FU 100 μM): 28.8%
CNT (%) Average value ([1]; 5-FU 1 mM): 7.7%
CNT (%) Average value (HT29; 2D, 5-FU 100 μM): 54.2%
CNT (%) Average value (HT29; 2D, 5-FU 1 mM): 25.8%
CNT (%) Average value (HT29; 3D, 5-FU 1 mM): 75.0%
CNT (%) Average value (HT29; Spheroid, 5-FU 100 μM): 57.5%
CNT (%) Average value (HT29; Spheroid, 5-FU 1 mM): 44.8%
CNT (%) Average value (HCT116; 2D, 5-FU 100 μM): 38.9%
CNT (%) Average value (HCT116; 2D, 5-FU 1 mM): 15.3%
CNT (%) Average value (HCT116; 3D, 5-FU 100 μM): 86.9%
CNT (%) Average value (HCT116; Spheroid, 5-FU 100 μM): 62.3%
CNT (%) Average value (HCT116; Spheroid, 5-FU 1 mM): 27.7%
CNT (%) Average value ([2]; 2D): 37.7%
CNT (%) Average value ([2]; 3D (NHLF, HMVEC-L)): 72.9%
